# US20130317096A1, “SYNERGISTIC INTERACTION OF AT LEAST ONE VITAMIN E COMPONENT AND TYROSINASE INHIBITORS FOR DERMATOLOGICAL APPLICATIONS” (Davos Life Science Pte Ltd, priority 2010, published 2013)
# Key:
# [1] = system: cleaved caspase 3 and PARP; assay: Western blot of apoptotic molecules; type: cell-based, mouse; settings: B16 melanoma cells
# B16 melanoma cells [2] = assay: Anti-pigmentation effect, photographs of cell pellets; type: cell-based, mouse; settings: 20 μM
# Experimental: (§1) At different time points, cells were harvested using trysin-EDTA and the cell pellets were washed once with phosphate-buffered saline (PBS). A sample amount from each compound treatment group was divided into two equal parts. These cell pellets were then stored at −80° C. prior to the measurement of the tyrosinase activity and melanin content.
# B16 melanoma cells [3] = assay: Melanin content of treated B16 melanoma cells; type: cell-based, mouse; settings: for melanin content lower than controls / melanin content: 20 μM; for melanin content: days 5 and 9
# Experimental: as §1
# Harvested cell pellets were dissolved in 1 ml of 1N sodium hydroxide before incubation at 80° C. The melanin content was then immediately measured at 420 nm. The absorbance percentage values of the treated groups in comparison to untreated controls were calculated against per μg of the determined total protein content.
# tyrosinase [4] = target: T1, tyrosinase (Mus musculus, UniProt P11344); assay: Tyrosinase activity of treated B16 melanoma cells (L-DOPA, dopachrome formation); type: cell-based; settings: 20 μM; for tyrosinase activity: day 9
# T1 construct: suppression of tyrosinase protein expression in B16 melanoma cells; endogenous in cells; host or cells: B16 melanoma cells
# T1 sequence (P11344 19-533): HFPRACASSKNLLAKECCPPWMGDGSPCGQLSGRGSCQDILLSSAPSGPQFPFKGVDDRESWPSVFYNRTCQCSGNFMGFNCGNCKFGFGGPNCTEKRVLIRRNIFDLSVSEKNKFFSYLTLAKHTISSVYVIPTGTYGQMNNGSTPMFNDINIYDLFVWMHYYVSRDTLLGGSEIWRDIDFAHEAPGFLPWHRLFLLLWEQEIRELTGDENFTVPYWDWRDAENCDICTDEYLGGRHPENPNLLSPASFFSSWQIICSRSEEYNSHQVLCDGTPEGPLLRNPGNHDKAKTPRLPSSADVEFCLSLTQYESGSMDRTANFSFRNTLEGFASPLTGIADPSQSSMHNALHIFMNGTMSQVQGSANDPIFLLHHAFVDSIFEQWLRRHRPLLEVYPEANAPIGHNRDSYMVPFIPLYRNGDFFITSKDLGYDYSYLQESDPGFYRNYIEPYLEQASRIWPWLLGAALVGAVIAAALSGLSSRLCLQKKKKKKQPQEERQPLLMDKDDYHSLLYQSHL
# Experimental: as §1
# Harvested cell pellets were homogenized in RIPA buffer (10 mM Tris-HCl [pH 7.5], 1% NP-40, 0.1% sodium deoxycholate, 0.1% SDS, 150 mM sodium chloride, and 1 mM EDTA) with protease inhibitors and placed on ice for 30 min. The supernatants were collected after centrifuging the samples at 15,000 g at 4° C. for 30 min. For every 100 μl of supernatant, 200 μl of 0.3% L-DOPA (Sigma-Aldrich) was added. All samples, including a blank control of RIPA buffer and 0.3% L-DOPA, were incubated at 37° C. for 20 min. The dopachrome formation from each sample was then measured at 475 nm. The absorbance percentage values of the treated groups in comparison to untreated controls were calculated against per μg of the total protein content, which was determined using the DC protein assay (Bio-Rad, Hercules, Calif., USA).
# B16 cells = assay: Melanin content of pre-treated B16 cells after UV exposure; type: cell-based, mouse; settings: 10 minutes UV exposure (short and long wave UV)
# Source text: (§2) The UVB source for cell irradiation was provided using a UVP UVM-57 handheld UV lamp (UVP Inc, Upland, Calif., USA).
# tyrosinase [5] = assay: UV-induced tyrosinase protein expression, Western blot; type: cell-based, mouse
# Experimental: as §2
# Briefly, cell lysates were prepared by suspending cell pellets in lysis buffer (50 mmol/l Tris-HCl [pH 8.0], 150 mmol/l NaCl, 1% NP40, 0.5% deoxycholate, 0.1% SDS, 1 mg/ml aprotinin, 1 μg/ml leupeptin, and 1 mmol/l phenylmethylsulfonyl fluoride). The protein concentration was measured using the DC Protein Assay kit (Bio-Rad, Hercules, Calif., USA). An equal amount of protein (30 μg) was loaded onto a 10% SDS polyacrylamide gel for electrophoresis, then transferred onto a polyvinylidene difluoride membrane (Amersham, Piscataway, N.J., USA). The membrane was then incubated with primary antibodies for 1 hr at room temperature against tyrosinase, Id1, and beta-actin (Santa Cruz Biotechnology, Inc., Santa Cruz, Calif., USA). After incubation with appropriate secondary antibodies, signals were visualized by an ECL Western blotting system (Amersham). The expression of β-actin was assessed as an internal loading control for total cell lysate.
# [6] = system: B16 cells xenografted on the flank of nude mice; assay: B16 xenograft model in nude mice; type: in vivo; settings: cells pre-treated with 20 μM for 1 week, 14 days oral supplementation
# Experimental: The experimental protocol was approved by the IACUC Committee of the A-STAR Biological Resource Centre (BRC) at Biopolis (IACUC no. 080302). Male BALB/c athymic nude mice (4-5 weeks old, 18-22 g) were purchased from The Jackson Laboratory (Bar Harbor, Me., USA). Mice were housed in Department 1 of the Biological Resource Centre (Biopolis, Singapore) under the standard condition (20.8±2° C., 55±1% relative humidity, 12 hrs light/dark cycle) with rodent diet (Harlan Laboratories, Inc., Indianapolis, Ind., USA) and chlorinated reverse osmosis water supplied in a pathogen-free environment. Briefly, B16 cells were pre-treated with 20 μM of γ- and δ-T3, or palm TRF for 1 week. Then, 5×10^5 pre-treated B16 cells in 100 μl serum-free DMEM were injected subcutaneously into the flank of nude mice using a 1-ml syringe with a 26-gauge needle (Becton Dickinson, Franklin Lakes, N.J., USA). This was followed by a 2-week oral supplementation of γ- and δ-T3, or palm TRF at the dose of 100 mg/kg/day. Altogether, there are four experimental groups: G1, vehicle control; G2, γT3 (100 mg/kg/d); G3, δT3 (100 mg/kg/d); and G4, full spectrum palm TRF (100 mg/kg/d). The mice were weighed daily and the tumors were measured using a Digital Carbon Fiber Caliper (Fisher Scientific, Pittsburgh, Pa., USA) at the 5th and 14th day after innoculation. After 14 days of treatment, the mice were euthanized by CO2 inhalation. Blood samples were collected through cardiac bleeding using a 26-gauge needle. Blood samples were incubated at room temperature for 30 min, followed by centrifugation at 4400 rpm for 30 min at 4° C. Serum, as the supernatant, was separated from plasma and stored at −80° C. Tumors, liver, kidney, spleen, lung, heart, and skin were harvested.
# tyrosinase mRNA = assay: Reverse transcriptase PCR of tyrosinase mRNA; type: cell-based, mouse; settings: B16 melanoma cells
# Source text: Total RNA was isolated using Trizol reagent according to the manufacturer's protocol (Invitrogen, Carlsbad, Calif., USA). cDNA was synthesized using the SuperScript First Strand Synthesis System (Invitrogen, Carlsbad, Calif., USA) and was then amplified by PCR with tyrosinase-specific primers (forward primer, tyrosinase-S,5′-[…]-3′ [−2236/−2217] (SEQ ID NO: 1) and reverse primer, tyrosinase-AS,5′-[…]-3′ [+63/+42]) (SEQ ID NO: 2) and GAPDH specific primers: 5′ to 3′F […] (SEQ ID NO: 3); 5′ to 3′R […] (SEQ ID NO: 4). The PCR cycling protocol was as follows: 30 cycles for 10 min at 95° C., 30 sec at 95° C., 30 sec at 55° C., 1 min at 72° C., and 10 min at 72° C. Glyceraldehyde 3-phosphate dehydrogenase (GAPDH) was amplified as an internal control. The PCR products were electrophoresed on a 2% agarose gel and analyzed using a gel documentation system.
smiles,measurement,setting,value
"CC(C)=CCC/C(C)=C/CC/C(C)=C/CCC1(C)CCc2cc(O)c(C)c(C)c2O1 (stereo not shown) [γ-tocotrienol, 7,8-dimethyltocotrienol]",induction of apoptotic molecules (cleaved caspase 3 and PARP),[1],induced critical apoptotic molecules in a dose-dependent manner
same,induction of apoptotic molecules (cleaved caspase 3 and PARP),[1]; listed as γ-T3,induced cellular apoptosis
same,cell pellet pigmentation,B16 melanoma cells [2]; listed as gamma T3,lighter cell pigmentation
same,cell pellet pigmentation,B16 melanoma cells [2]; listed as γT3,lighter cell pigmentation
same,melanin content lower than controls,B16 melanoma cells [3]; day 5,45%
same,melanin content lower than controls,B16 melanoma cells [3]; day 9,30%
same,melanin content,B16 melanoma cells [3]; listed as gamma T3,significantly suppressed the melanin content up to day 9
same,melanin content,B16 melanoma cells [3]; listed as γT3,marginally lower than the treatment samples using 0.05% sodium lactate and kojic acid
same,constitutive melanin synthesis,B16 melanoma cells [3]; B16 melanoma cells,suppress constitutive melanin synthesis
same,tyrosinase activity,tyrosinase [4]; listed as gamma T3,significantly suppressed the activity of tyrosinase on day 9
same,tyrosinase activity,tyrosinase [4]; listed as γT3,comparable to that treated with 0.05% kojic acid
same,tyrosinase activity compared to controls,tyrosinase [4]; day 15,< 15%
same,melanin content after UV exposure,B16 cells,significantly suppressed the melanin content
same,tyrosinase protein expression of B16 cells exposed to UV,"tyrosinase [5]; UV 1, 10, 30 and 60 minutes",significantly suppressed the tyrosinase protein expression
same,long-term inhibitory effect on UVB-induced tyrosinase activation,tyrosinase [5]; long-term UVB,comparable
same,pigmentation of solid tumors,[6],lighter in colour compared to controls
same,tumor size,[6],significantly smaller
same,tyrosinase mRNA,tyrosinase mRNA,No change of tyrosinase mRNA
same,tyrosinase mRNA,tyrosinase mRNA; listed as γ-T3,not affected
